Assay results as given in patent US20250205231A1, “Tear Film Stability” (priority 2012, published 2025).
Several values for one entry are separate records, joined by “and”; a condition that tells them apart may be missing. Equal entries are not always repeated. Entries after “also recorded” stand apart in the source; their conditions may differ.

Experiments:
[1] = system: patients with dry eye and blepharitis; test: Blepharitis score, topical statin pilot study; type: in vivo, human; set-up: Blepharitis score: scale not given here
Excerpt: (§1) Aim: To investigate topical statin as a novel therapy for dry eyes associated with blepharitis. Methods: 10 patients with symptoms and signs of dry eye and blepharitis were enrolled in a prospective pilot study of topical statin therapy over 1 month. The primary outcome measure was corneal fluorescein staining. Results: An Improvement in corneal fluorescein staining by a 3 points from baseline to completion of the trial at week four was found in 6 of 10 patients in the study eye. Subjective dry eye symptoms improved (p=0.005). […] Conclusions: Topical statins are a suitable therapy for patients with dry eye and blepharitis. They can be easily manufactured and could be widely available.
(§2) 10 patients were enrolled and completed the study.
(§3) Patients with • 1) Any symptoms of dry eyes and blepharitis • 2) Any signs of dry eyes: • BUT (tear break up time)≤5 sec, or • Punctate epithelial erosions in at least one eye • 3) Any signs of blepharitis: • Anterior lid margin—grease, skin scales, collarets, frank ulcers, loss of lashes and inflammation • Posterior lid margin—cheesy secretions, blocked meibomian glands >⅓, telangiectasia, meibomitis, notched lid margin and chalaza • 4) Male or female patients greater or equal to 18 years of age • 5) Patients able to give written informed consent and comply with study protocol […]
(§4) Patients were evaluated at weeks 1, 2, 3 and 4. […]

[2] = system: patients with dry eye and blepharitis; test: Tear film break-up time (BUT), topical statin pilot study; type: in vivo, human; conditions: 1 month topical therapy
Excerpt: as §1, §2, §3, §4

[3] = system: patients with dry eye and blepharitis; test: Concomitant use of topical lubricants, topical statin pilot study; type: in vivo, human
Excerpt: as §2
(§5) • 1) Subjective • Total symptoms score • Face score (Goto et al 2002) • 2) Objective • a) Tear film break-up time (BUT) • b) Corneal fluorescein staining • b) Blepharitis score • c) Bulbar conjunctival injection • d) Concomitant use of topical therapy
Prior to the study, 6 patients were using topical lubricants an average of 6 times a day (range 2 to 8. SD 2.3); 4 of these patients were using preservative-free lubricants. At study completion, 2 patients had ceased their topical lubrication, and 3 of the remaining 4 patients had reduced the frequency of lubricant use to an average of 4 times a day (range 3 to […]). […] One patient had had punctal occlusion in the study eye. 4 patients were performing lid massage with hot compresses and 4 were using a cotton bud for lid hygiene, 1 with bicarbonate of soda solution and 2 with shampoo. Patients were asked not to change these regimes during the study period.

[4] = system: patients with dry eye and blepharitis; test: Subjective dry eye symptom scores (global and individual), topical statin pilot study; type: in vivo, human; set-up: Global Symptom score: scale not given here
Excerpt: as §1, §2
(§6) Patients with • 1) Any symptoms of dry eyes and blepharitis • 2) Any signs of dry eyes: • BUT (tear break up time)≤5 sec, or • Punctate epithelial erosions in at least one eye • 3) Any signs of blepharitis: • Anterior lid margin—grease, skin scales, collarets, frank ulcers, loss of lashes and inflammation • Posterior lid margin—cheesy secretions, blocked meibomian glands >⅓, telangiectasia, meibomitis, notched lid margin and chalaza • 4) Male or female patients greater or equal to 18 years of age • 5) Patients able to give written informed consent and comply with study protocol
as §5
(§7) Patients were evaluated at weeks 1, 2, 3 and 4. However, the primary endpoint was at trial completion (4 weeks). A p value <0.050 was considered statistically significant.

[5] = system: patients with dry eye and blepharitis; test: Face score (facial analogue scale, Goto et al 2002), topical statin pilot study; type: in vivo, human; set-up: Facescale score: scale not given here
Excerpt: as §1, §2, §3, §4

[6] = system: patients with dry eye and blepharitis; test: Safety evaluation: intraocular pressure (IOP); conditions: baseline to study completion
[7] = system: patients with dry eye and blepharitis; test: Safety evaluation: best-corrected visual acuity (BCVA); conditions: baseline to study completion
[8] = system: patients with dry eye and blepharitis; test: Schirmer I test, topical statin pilot study; type: in vivo, human; conditions: baseline to week four
Excerpt: as §1, §2, §6, §4

[9] = system: patients with dry eye and blepharitis; test: Corneal fluorescein staining (National Eye Institute scoring 0-15), topical statin pilot study; type: in vivo, human
Excerpt: as §1, §2, §6, §5, §7

[10] = system: patients with dry eye and blepharitis; test: Safety evaluation: cataract and adverse reactions; type: in vivo, human
Excerpt: as §2

[11] = 1 month, study eye, individual patients 1-10, listed as topical statin

CC(C)c1c(C(=O)Nc2ccccc2)c(-c2ccccc2)c(-c2ccc(F)cc2)n1CC[C@@H](O)C[C@@H](O)CC(=O)O [Atorvastatin] was tested, and the “Effect on blepharitis score (in words)” value ([1]; 1 month topical therapy) was “significantly improved”, the Blepharitis score [1, 11] was 7 (2×) and 5 (3×) and 4 (3×) and 2 (2×) and the “Effect on tear film break-up time (in words)” value [2] was “significantly improved”. The “Patients who had ceased their topical lubrication at study completion” value ([3]; of 6 patients using topical lubricants prior to the study) was 2 patients, the “Patients who had reduced the frequency of lubricant use” value ([3]; of the remaining 4 patients, at study completion) was 3 patients and the “Average frequency of lubricant use at study completion” value ([3]; range 3 to 6, SD 0.6, prior to the study average 6 times a day) was 4 times a day. For the same compound, the “Effect on subjective dry eye symptoms (in words)” value ([4]; 1 month topical therapy) was “improved”, the “Global Symptom score” value [4, 11] was 5 and 0 (5×) and 3 and 4 and 1 and 2 and the “Change in blurred vision score (in words)” value ([4]; enrolment to week four) was “no significant change”. For the same compound, the “Change in discomfort score (in words)” value ([4]; enrolment to week four) was “significant improvement”, the “Change in dryness score (in words)” value ([4]; enrolment to week four) was “significant improvement” and the “Change in foreign body sensation score (in words)” value ([4]; enrolment to week four) was “significant improvement”. For the same compound, the “Change in photophobia score (in words)” value ([4]; enrolment to week four) was “no significant change”, the “Change in redness score (in words)” value ([4]; enrolment to week four) was “significant improvement” and the “Change in watering score (in words)” value ([4]; enrolment to week four) was “significant improvement”. The Facescale score ([5]; 1 month, facial analogue scale, individual patients 1-10, listed as topical statin) was 4 (3×) and 1 and 3 (2×) and 5 (3×) and 2, the “Change in face score (in words)” value ([5]; enrolment to week four) was “significant improvement” and the “Change in IOP, study eye (in words)” value [6] was “no change”. The “Change in BCVA, fellow eye (in words)” value [7] was “no significant change”, the “Change in BCVA, study eye (in words)” value [7] was “no significant change” and the “Change in Schirmer I test result (in words)” value [8] was “no significant change”. The Corneal fluorescein score ([9]; 1 month, NEI scale 0-15, individual patients 1-10, 50 microM, 8 times a day, listed as topical statin) was 1 (2×) and 0 (4×) and 2 (3×) and 4, the “Patients with improvement in corneal fluorescein staining by three or more points” value ([9]; of 10 patients, baseline to week four) was 6 patients and the “Patients with corneal fluorescein staining score improved by more than one point” value ([9]; of the 10 patients) was 9 patients. The “Adverse events / side-effects” value ([10]; 1 month topical therapy, both eyes, 10 patients, listed as topical statin) was “no serious or irreversible side-effects; also recorded: No adverse events were reported” and the Cataract development ([10]; baseline to study completion) was “no patient developed cataract”.
